Experimental findings from patent publication US20180215734A1, “PYRIMIDINE DERIVATIVES AS KINASE INHIBITORS AND THEIR THERAPEUTICAL APPLICATIONS” (NantBioScience, Inc., priority 2016, published 2018) are described below.

Chain of FGFR1(h) (P11362 22-822): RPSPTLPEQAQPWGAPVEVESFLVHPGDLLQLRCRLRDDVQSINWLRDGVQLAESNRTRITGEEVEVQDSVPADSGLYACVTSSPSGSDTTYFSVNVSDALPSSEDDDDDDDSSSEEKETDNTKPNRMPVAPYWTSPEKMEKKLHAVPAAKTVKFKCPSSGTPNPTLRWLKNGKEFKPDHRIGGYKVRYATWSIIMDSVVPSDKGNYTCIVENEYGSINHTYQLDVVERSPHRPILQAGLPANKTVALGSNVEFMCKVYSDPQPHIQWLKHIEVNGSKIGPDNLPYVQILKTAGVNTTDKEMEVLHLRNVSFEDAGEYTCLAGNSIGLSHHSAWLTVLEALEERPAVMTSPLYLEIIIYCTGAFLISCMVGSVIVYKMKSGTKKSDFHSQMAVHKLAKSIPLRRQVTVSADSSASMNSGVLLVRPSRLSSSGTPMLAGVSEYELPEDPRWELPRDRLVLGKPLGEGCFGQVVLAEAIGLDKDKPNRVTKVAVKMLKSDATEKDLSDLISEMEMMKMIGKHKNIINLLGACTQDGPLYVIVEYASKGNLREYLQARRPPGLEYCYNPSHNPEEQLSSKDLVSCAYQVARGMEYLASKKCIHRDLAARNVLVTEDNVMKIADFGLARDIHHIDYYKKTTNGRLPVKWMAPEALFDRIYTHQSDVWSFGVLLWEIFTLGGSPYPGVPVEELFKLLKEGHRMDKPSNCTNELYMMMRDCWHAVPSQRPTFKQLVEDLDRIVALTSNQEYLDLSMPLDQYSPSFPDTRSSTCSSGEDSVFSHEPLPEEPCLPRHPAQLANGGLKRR

The test system of the first test is Kato III. As to the kind of experiment: Inhibition of proliferation (CellTiterblue, 72 hr), Kato III. In kind it is cell-based.
Settings: not given
Here is the method:
(§1) A number of studies were performed to analyze the consequences of tyrosine kinase inhibition in cell lines. To do this, 1000 cells are seeded in 27 μl/well in 384-well microplates, which are then placed in a humidified CO2 incubator at 37° C. overnight. The next day, 3 μl/well of 10× concentrated drug is added and the plates are returned to the incubator for 72 hr. After 72 hr incubation, plates are removed and 6 μl/well CellTiterblue (Promega) viability reagent is added. Plates are returned to the incubator for 3 hrs, after which fluorescence measurements are read on the Victor X3 plate reader (Perkin Elmer). Data are analyzed using Excel (Microsoft), and GI50 values are determined using Prism (Graphpad).
For orientation: Resazurin is reduced to fluorescent resorufin, in cell work by metabolically active cells.
`Cc1cc2c(F)c(Oc3ncnc(Nc4ccc(N5CCN[C@@H](C)C5)cc4)c3C#N)cc(F)c2[nH]1` [Compound 34]: the concentration for 50% growth inhibition (GI50) (usually the concentration at which growth is held to half of that of the control) was 98 nM.

The test is the same for the next values; noted with them: Homo sapiens, KATO III, 72 h.
In turn, `Cc1cc2c(F)c(Oc3ncnc(Nc4ccc(N5CCN(CCO)CC5)cc4)c3C#N)cc(F)c2[nH]1` [Compound 31] came in with a GI50 of 205 nM.

Regarding `Cc1cc2c(F)c(Oc3ncnc(Nc4ccc(N5CCN[C@@H](C)C5)cc4)c3C#N)cc(F)c2[nH]1` [Compound 33], the GI50 stood at 88 nM.

For the molecule `Cc1cc2c(F)c(Oc3ncnc(Nc4ccc(N5CCN(C)C(C)C5)cc4)c3C#N)cc(F)c2[nH]1` (stereo not drawn) [Compound 46], growth was halved (GI50) at 111 nM.

`CCN1[C@H](C)CN(c2ccc(Nc3ncnc(Oc4cc(F)c5[nH]c(C)cc5c4F)c3C#N)cc2)C[C@@H]1C` [Compound 47] registered a GI50 of 123 nM.

A further test deals with FGFR1(h) (Homo sapiens, UniProt P11362). As to the kind of experiment: Kinase assay, FGFR1(h). As to conditions: 1 μM. It counts as biochemical. Here is the method:
(§2) Kinase assay protocols well known to those of ordinary skill in the art were used. Specifically, the buffer composition was as follows: 20 mM MOPS, 1 mM EDTA, 0.01% Brij-35, 5% Glycerol, 0.1% β-mercaptoethanol, 1 mg/mL BSA. Test compounds were initially dissolved in DMSO at the desired concentration, then serially diluted to the kinase assay buffer. In a final reaction volume of 25 μL FGFR1(h) (5-10 mU) and KDR(h) (5-10 mU) are incubated with 8 mM MOPS pH 7.0, 0.2 mM EDTA, 200 μM LRRASLG (Kemptide), 10 mM magnesium acetate and [γ^33P-ATP]. The reaction was initiated by the addition of the MgATP mix. After incubation for 40 minutes at room temperature, the reaction was stopped by addition of 5 μL of a 3% phosphoric acid solution. Ten L of the reaction was then spotted onto a P30 filter mat and washed three times for 5 minutes in 50 mM phosphoric acid and once in methanol prior to drying and scintillation counting. Wells containing substrate but no kinase and wells containing a phosphopeptide control were used to set 0% and 100% phosphorylation value, respectively.
(§3) Of all of the steps in developing a drug, the hardest is finding promising compounds. (See, e.g., Malo et al., “Statistical practice in high-throughput screening data analysis,” Nature Biotechnology, 2006, 24, 167-75.) Kinase inhibitors often also have an anti-proliferative effect. […] The kinase inhibitory activity Compound 19 was tested using the kinase assay described in Example 3. […] These mutations in the tested kinases are thought to play an important role in transformation of some cancers.
Take `Cc1cc2c(F)c(Oc3ncnc(Nc4ccc(N5CCN(CCO)CC5)cc4)c3C#N)cc(F)c2[nH]1` [Compound 31]: the inhibition (in general, the drop in the measured response relative to a control, in per cent) at 1 µM is 102%.

As to `Cc1cc2c(F)c(Oc3ncnc(Nc4ccc(N5CCN[C@@H](C)C5)cc4)c3C#N)cc(F)c2[nH]1` [Compound 33], the inhibition at 1 µM was found to be 101%.

With `Cc1cc2c(F)c(Oc3ncnc(Nc4ccc(N5CCN[C@@H](C)C5)cc4)c3C#N)cc(F)c2[nH]1` [Compound 34], the % Inhibition (in general, the percentage by which the read-out fell short of the control) at 1 μM FGFR1(h) was found to be 100%.

As for `Cc1cc2c(F)c(Oc3ncnc(Nc4ccc(N5CCN(C)C(C)C5)cc4)c3C#N)cc(F)c2[nH]1` (stereo not drawn) [Compound 46], the inhibition at 1 µM was 101%.

For `CCN1[C@H](C)CN(c2ccc(Nc3ncnc(Oc4cc(F)c5[nH]c(C)cc5c4F)c3C#N)cc2)C[C@@H]1C` [Compound 47], the inhibition at 1 µM amounted to 101%.

The target in another test is KDR(h) (Homo sapiens, UniProt P35968). As to the kind of experiment: Kinase assay, KDR(h). In kind it is biochemical.
Chain of KDR(h) (P35968 20-1356): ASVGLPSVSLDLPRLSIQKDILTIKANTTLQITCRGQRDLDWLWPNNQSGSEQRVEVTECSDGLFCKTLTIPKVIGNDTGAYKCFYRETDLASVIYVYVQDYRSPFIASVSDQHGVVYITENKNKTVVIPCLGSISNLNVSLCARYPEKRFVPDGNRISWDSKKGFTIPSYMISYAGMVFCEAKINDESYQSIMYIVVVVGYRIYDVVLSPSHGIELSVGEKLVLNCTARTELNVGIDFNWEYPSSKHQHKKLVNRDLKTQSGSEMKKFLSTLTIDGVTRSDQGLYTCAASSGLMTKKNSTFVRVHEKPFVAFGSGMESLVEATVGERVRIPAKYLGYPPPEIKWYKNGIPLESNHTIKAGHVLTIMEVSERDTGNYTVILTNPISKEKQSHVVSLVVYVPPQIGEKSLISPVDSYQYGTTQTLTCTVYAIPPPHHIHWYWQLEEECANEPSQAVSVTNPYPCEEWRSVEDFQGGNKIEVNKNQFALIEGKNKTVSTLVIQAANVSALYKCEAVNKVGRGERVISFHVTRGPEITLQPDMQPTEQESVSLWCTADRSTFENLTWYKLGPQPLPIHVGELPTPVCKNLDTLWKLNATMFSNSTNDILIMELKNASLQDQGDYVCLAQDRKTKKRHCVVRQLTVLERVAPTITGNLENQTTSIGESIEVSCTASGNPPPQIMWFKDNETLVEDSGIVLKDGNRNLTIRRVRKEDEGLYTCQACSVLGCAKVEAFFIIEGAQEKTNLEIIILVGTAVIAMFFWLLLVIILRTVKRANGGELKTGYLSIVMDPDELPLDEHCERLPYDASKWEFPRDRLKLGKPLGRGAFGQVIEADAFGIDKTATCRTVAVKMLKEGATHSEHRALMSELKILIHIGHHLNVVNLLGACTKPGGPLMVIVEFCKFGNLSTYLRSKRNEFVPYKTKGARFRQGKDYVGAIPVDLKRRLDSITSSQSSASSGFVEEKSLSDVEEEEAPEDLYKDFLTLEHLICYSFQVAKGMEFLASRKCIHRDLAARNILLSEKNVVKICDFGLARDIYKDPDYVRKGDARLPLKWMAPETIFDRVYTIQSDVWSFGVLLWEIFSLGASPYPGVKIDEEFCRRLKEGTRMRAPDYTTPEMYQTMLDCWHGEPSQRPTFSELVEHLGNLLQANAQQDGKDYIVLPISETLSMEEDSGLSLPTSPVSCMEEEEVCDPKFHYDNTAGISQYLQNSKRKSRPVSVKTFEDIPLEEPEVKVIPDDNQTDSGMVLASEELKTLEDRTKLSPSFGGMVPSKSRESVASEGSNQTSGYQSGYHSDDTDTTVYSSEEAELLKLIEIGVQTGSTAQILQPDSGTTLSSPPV
Settings: not given
Here is the method:
as §2, §3
For `Cc1cc2c(F)c(Oc3ncnc(Nc4ccc(N5CCN(CCO)CC5)cc4)c3C#N)cc(F)c2[nH]1` [Compound 31], the inhibition at 1 µM worked out at 95%.

In the case of `Cc1cc2c(F)c(Oc3ncnc(Nc4ccc(N5CCN[C@@H](C)C5)cc4)c3C#N)cc(F)c2[nH]1` [Compound 33], the inhibition at 1 µM turned out to be 89%.

With `Cc1cc2c(F)c(Oc3ncnc(Nc4ccc(N5CCN(C)C(C)C5)cc4)c3C#N)cc(F)c2[nH]1` (stereo not drawn) [Compound 46], the inhibition at 1 µM was determined as 90%.

As to `CCN1[C@H](C)CN(c2ccc(Nc3ncnc(Oc4cc(F)c5[nH]c(C)cc5c4F)c3C#N)cc2)C[C@@H]1C` [Compound 47], the inhibition at 1 µM came out at 74%.

The test is the same for the next values; noted with them: 1 μM.
`Cc1cc2c(F)c(Oc3ncnc(Nc4ccc(N5CCN[C@@H](C)C5)cc4)c3C#N)cc(F)c2[nH]1` [Compound 34]: the “% Inhibition at 1 μM KDR(h)” value is 89%.

For another test, the system named is RT112. As to the kind of experiment: Inhibition of proliferation (CellTiterblue, 72 hr), RT112. It counts as cell-based.
Settings: not given
Here is the method:
as §1
On to `Cc1cc2c(F)c(Oc3ncnc(Nc4ccc(N5CCN[C@@H](C)C5)cc4)c3C#N)cc(F)c2[nH]1` [Compound 33], for which the GI50 stood at 126 nM.

`Cc1cc2c(F)c(Oc3ncnc(Nc4ccc(N5CCN[C@@H](C)C5)cc4)c3C#N)cc(F)c2[nH]1` [Compound 34]: the concentration for 50% growth inhibition (GI50) was 52 nM.

The same test, now with this note: Homo sapiens, RT-112, 72 h.
Consider `Cc1cc2c(F)c(Oc3ncnc(Nc4ccc(N5CCN(CCO)CC5)cc4)c3C#N)cc(F)c2[nH]1` [Compound 31], for which the GI50 came out at 171 nM.

`Cc1cc2c(F)c(Oc3ncnc(Nc4ccc(N5CCN(C)C(C)C5)cc4)c3C#N)cc(F)c2[nH]1` (stereo not drawn) [Compound 46] gave a GI50 of 48 nM.

On to `CCN1[C@H](C)CN(c2ccc(Nc3ncnc(Oc4cc(F)c5[nH]c(C)cc5c4F)c3C#N)cc2)C[C@@H]1C` [Compound 47], for which the GI50 was determined as 48 nM.

Another test relates to SNU16. As to the kind of experiment: Inhibition of proliferation (CellTiterblue, 72 hr), SNU16. It counts as cell-based.
Settings: not given
The procedure: as §1
`Cc1cc2c(F)c(Oc3ncnc(Nc4ccc(N5CCN[C@@H](C)C5)cc4)c3C#N)cc(F)c2[nH]1` [Compound 34] gave a concentration for 50% growth inhibition (GI50) of 22 nM.

Staying with this test, now noted: Homo sapiens, SNU-16, 72 h.
Take `Cc1cc2c(F)c(Oc3ncnc(Nc4ccc(N5CCN(CCO)CC5)cc4)c3C#N)cc(F)c2[nH]1` [Compound 31]: the concentration for 50% growth inhibition (GI50) is 32 nM.

Molecule `Cc1cc2c(F)c(Oc3ncnc(Nc4ccc(N5CCN[C@@H](C)C5)cc4)c3C#N)cc(F)c2[nH]1` [Compound 33] came in with a 50% growth inhibitory concentration (GI50) of 12 nM.

In turn, `Cc1cc2c(F)c(Oc3ncnc(Nc4ccc(N5CCN(C)C(C)C5)cc4)c3C#N)cc(F)c2[nH]1` (stereo not drawn) [Compound 46] gave a 50% growth inhibitory concentration (GI50) of 22 nM.

`CCN1[C@H](C)CN(c2ccc(Nc3ncnc(Oc4cc(F)c5[nH]c(C)cc5c4F)c3C#N)cc2)C[C@@H]1C` [Compound 47] returned a concentration for 50% growth inhibition (GI50) of 22 nM.

A further test deals with KG1a. As to the kind of experiment: Inhibition of proliferation (CellTiterblue, 72 hr), KG1a. It counts as cell-based, human. Conditions: 72 hr. Here is the method:
as §1
In turn, `Cc1cc2c(F)c(Oc3ncnc(Nc4ccc(N5CCN[C@@H](C)C5)cc4)c3C#N)cc(F)c2[nH]1` [Compound 34] gave a concentration for 50% growth inhibition (GI50) of 0.28 nM.

The same test, now with this note: Homo sapiens, KG-1a; 72 hr.
With `Cc1cc2c(F)c(Oc3ncnc(Nc4ccc(N5CCN(CCO)CC5)cc4)c3C#N)cc(F)c2[nH]1` [Compound 31], the GI50 worked out at 0.35 nM.

As for `Cc1cc2c(F)c(Oc3ncnc(Nc4ccc(N5CCN[C@@H](C)C5)cc4)c3C#N)cc(F)c2[nH]1` [Compound 33], the GI50 stood at 0.28 nM.

Molecule `Cc1cc2c(F)c(Oc3ncnc(Nc4ccc(N5CCN(C)C(C)C5)cc4)c3C#N)cc(F)c2[nH]1` (stereo not drawn) [Compound 46] registered a 50% growth inhibitory concentration (GI50) of 1.37 nM.

Take `CCN1[C@H](C)CN(c2ccc(Nc3ncnc(Oc4cc(F)c5[nH]c(C)cc5c4F)c3C#N)cc2)C[C@@H]1C` [Compound 47]: it took 0.5 nM to inhibit growth by half (GI50).
